Experimental data: patent publication US6451844B1, “Use of menthyl-2 pyrrolidone-5-carboxylate as an insect repellent” (Quest International BV, priority 1998, dated 2002)

System: Aedes aegypti
Test: Insect repellency test (mosquitoes attempting to bite treated warmed membrane targets)
Type: in vivo
Conditions: for % Repellency initially / % Repellency After 1 Hour: neat compound, 30 microlitres on membrane, 27° C.; for % Repellency initially: 10 minute period directly after application; for % Repellency After 1 Hour: 10 minute period one hour after application
Description: Four test chambers were prepared using 300 mm 200 gauge […] tubing. The synthetic plastics tubing was attached to oblong stainless steel frames (150 mm by 150 mm by 900 mm) using double-sided adhesive tape. 200 mm squares of cotton netting were used to cover the ends of the chambers and were secured using adhesive tape. Mosquitoes (naive insects of the species Aedes aegypti, 4 to 7 days old) were introduced into each chamber 8 and the chambers 8 were kept in a separate room until the test was ready to begin. The exhaust fan which vents the room in which the test was performed was switched on. Four targets 5 (only two shown) were prepared as follows: double layers of semi-porous membrane were stretched over the open ends of four open ended glassware bulbs (diameter of open end 43 mm) and secured using elastic bands. Testing was carried out at 27° C. The membranes were kept moist and warmed above the ambient temperature throughout the test by passing a supply of water ([…]) through the glassware bulbs, so as to contact the inner surface of the membranes. […] This was repeated with two other membranes and the fourth membrane was left untreated as a control. The chambers 8 containing the mosquitoes were positioned so that each chamber had one netting end pressed against one of the targets 5. Glass partitions in the form of a cross 6 were used to separate each target 5 and chamber end from its neighbour. […] The separation of the membranes ensured that air passing over a particular membrane would pass through only one test chamber 8. The filters 2, 3 were used to remove volatile elements from the air passing over the mosquitoes; filter 2 contained activated charcoal and filter 3 contained a molecular sieve (Union Carbide type 5A zeolite). The material in each filter 2, 3 was held within the cells of a 25 mm thick sheet of aluminium honeycomb sandwiched between two sheets of stainless steel mesh held in an aluminium frame. The filters 2,3 were bolted by their frames to the inside of an aluminium tunnel such that air passing along the tunnel passed through the filters 2, 3. […] An electronic timer was used to project the date and time onto the screen, and the video recorder 14 was used to record the data. The mosquitoes in the test chambers 8 were activated by introduction of a human breath stimulus upwind of the targets 5 and the number of insects attempting to bite each target 5 over the next ten minute period was recorded. After ten minutes, the recording was stopped and the test chambers 8 removed from their position immediately downwind of the targets 5. […] The numbers of mosquitoes attempting to bite each of the targets 5 was noted every 10 seconds throughout each ten minute recording period. The 60 readings were used to produce a figure for the mean number of insects biting each target 5 during the ten minute test periods. The reading obtained for the untreated target 5 was used to give a measure of the basic avidity of the mosquitoes used in the test and this was taken into account when analysing the results. […] The above lotions were tested for insect repellency using the method outlined in Example 1.

SMILES: CC1CCC(C(C)C)C(OC(=O)C2CCC(=O)N2)C1 (stereo not shown) [Menthyl 2-pyrrolidone-5-carboxylate]
- insect repellent effectiveness (in words) (compared with hydrolysis product menthol, maintained for at least 1 hour after application to a substrate): more effective insect repellent than its hydrolysis product, menthol
- % Repellency initially: 80%
- % Repellency After 1 Hour: 59%

SMILES: CCN(CC)C(=O)c1cccc(C)c1 [DEET, N,N-diethyl-m-toluamide]
- % Repellency initially: 93%
- % Repellency After 1 Hour: 75%

SMILES: CC1CCC(C(C)C)C(O)C1 (stereo not shown) [Menthol, menthol]
- % Repellency initially: 49%
- % Repellency After 1 Hour: 25%
